Drawing on patent publication US12643912B2, “Macrocyclic compounds, a process for their preparation and pharmaceutical compositions containing them” (LES LABORATOIRES SERVIER, priority 2020, dated 2026), this text covers EC50 for 20 compounds.

Where only a bound is given, the exact number is not on record here.

In this assay the test system is Nrf2 (Keap1-NRF2 nuclear translocation). Briefly: U2OS translocation assay (PathHunter U2OS Keap1-NRF2 Nuclear Translocation Cell Line). The class given is cell-based. Conditions: Homo sapiens, U2OS, 3 h, read-out: CELLULAR U2OS EC50 (nM), U2OS Keap1-NRF2 nuclear translocation cells, 3 h incubation, luminescence, normalized between 1% DMSO and 10 μM andrographolide. The method, then:
EXAMPLE 84: U2OS—TRANSLOCATION ASSAY
U2OS cell have been stably transduced using MMLV-derived retroviral vector, to overexpress Nrf2-Enzyme Donor fusion protein, and Acceptor Enzyme in the nucleus (PathHunter® U2OS Keap1-NRF2 Nuclear Translocation Cell Line, Ref.93-0821C3, DiscoverX).
PathHunter U2OS cells were grown in Minimum Essential Medium (MEM) (Ref.30-2003, ATCC), 10% FBS (Ref.P30-193306, PanBiotech), 500 μg/ml Geneticine, 250 μg/ml hygromycine, 0.25 μg/ml puromycine (10131-027, 10687-010 and Ref.A1113802 respectively, Life Technologies).
The night before experiment, cells were harvested using Tryple Xpress (Ref.126905, Bibco) for 5 min at 37° C., resuspended in Opti-MEM™ (Ref.31985-047, Gibco), 1% FBS (Ref.P30-193306, PanBiotech) and then plated into 384 wells plates (Ref.6007680, Perkin Elmer) at the density of 7 500 cells/well in 20 μl. Cell are stored over night at 37° C., 5% CO2 until used. Compounds in 100% DMSO (0.315 μl/well) were resuspended in 20 μl MEM, 1% FBS, 3.4% DMSO. Compounds and andrographolide (10 μM final concentration; Ref.365645-500MG, Aldrich)) as positive control, were dispensed on cell, 5 μl /well, and then incubated for 3 h at 37° C. and 5% CO2. After incubation, Path hunter reagents were dispensed on cells (12 μl /well, Ref.93-0001, DiscoverX) and incubated for 60 min at room temperature in the dark.
Then, luminescence signal was measured using multimodal reader (Pherastar, BMG Labtech). Data were normalized between 1% DMSO (basal signal) and 10 μM andrographolide (positive signal) and analyzed using Activity Base software.
As for `Cc1ccc2cc1[C@@H](C)N1Cc3cc(cc(C)c3OS1(=O)=O)OCCCCn1nnc3c(C)c(ccc31)[C@@H]2CC(=O)O` [Example 29a, [(2R,8R)-2,4,24,31-Tetramethyl-27,27-dioxo-21,26-dioxa-27λ^6-thia-1,14,15,16-tetraazahexacyclo[20.5.3.1^3,70.1^9,130.0^12,160.0^25,29]dotriaconta-3(32),4,6,9(31),10,12,14,22,24,29-decaen-8-yl]acetic acid], the EC50 came out at 440 nM.
Turning to `Cc1ccc2cc1[C@@H](C)N1Cc3cc(cc(C)c3OS1(=O)=O)OCCCCn1nnc3c(C)c(ccc31)[C@H]2CC(=O)O` [Example 29b, [(2R,8S)-2,4,24,31-tetramethyl-27,27-dioxo-21,26-dioxa-27λ^6-thia-1,14,15,16-tetraazahexacyclo[20.5.3.1^3,70.1^9,130.0^12,160.0^25,29]dotriaconta-3(32),4,6,9(31),10,12,14,22,24,29-decaen-8-yl]acetic acid], the EC50 was 68.4 nM.
Consider `COc1ccc2cc1[C@H](C)N1Cc3cc(ccc3OS1(=O)=O)OCCCCCn1nnc3c(C)c(ccc31)[C@H]2CC(=O)O` [Example 31a, [(2S,8S)-4-methoxy-2,32-dimethyl-28,28-dioxo-22,27-dioxa-28λ^6-thia-1,14,15,16-tetraazahexacyclo[21.5.3.1^3,70.1^9,130.0^12,160.0^26,30]tritriaconta-3(33),4,6,9(32),10,12,14,23,25,30-decaen-8-yl]acetic acid], for which the EC50 stood at 1430 nM.
Consider `COc1ccc2cc1[C@@H](C)N1Cc3cc(ccc3OS1(=O)=O)OCCCCCn1nnc3c(C)c(ccc31)[C@H]2CC(=O)O` [Example 31b, [(2R,8S)-4-methoxy-2,32-dimethyl-28,28-dioxo-22,27-dioxa-28λ^6-thia-1,14,15,16-tetraazahexacyclo[21.5.3.1^3,70.1^9,130.0^12,160.0^26,30]tritriaconta-3(33),4,6,9(32),10,12,14,23,25,30-decaen-8-yl]acetic acid], for which the EC50 turned out to be 27.4 nM.
With `COc1ccc2cc1[C@H](C)N1Cc3cc(ccc3OS1(=O)=O)OCCCCCn1nnc3c(C)c(ccc31)[C@@H]2CC(=O)O` [Example 31c, [(2S,8R)-4-methoxy-2,32-dimethyl-28,28-dioxo-22,27-dioxa-28λ^6-thia-1,14,15,16-tetraazahexacyclo[21.5.3.1^3,70.1^9,130.0^12,160.0^26,30]tritriaconta-3(33),4,6,9(32),10,12,14,23,25,30-decaen-8-yl]acetic acid], the concentration giving a half-maximal response (EC50) is more than 3160 nM.
In the case of `COc1ccc2cc1[C@@H](C)N1Cc3cc(ccc3OS1(=O)=O)OCCCCCn1nnc3c(C)c(ccc31)[C@@H]2CC(=O)O` [Example 31d, [(2R,8R)-4-methoxy-2,32-dimethyl-28,28-dioxo-22,27-dioxa-28λ^6-thia-1,14,15,16-tetraazahexacyclo[21.5.3.1^3,70.1^9,130.0^12,160.0^26,30]tritriaconta-3(33),4,6,9(32),10,12,14,23,25,30-decaen-8-yl]acetic acid], the EC50 is 326 nM.
Regarding `COc1cc2cc(c1Cl)CN1Cc3cc(ccc3OS1(=O)=O)OCCCCn1nnc3c(C)c(ccc31)C2CC(=O)O` (centres unmarked) [Example 38a, [4-Chloro-5-methoxy-31-methyl-27,27-dioxo-21,26-dioxa-27λ^6-thia-1,14,15,16-tetraazahexacyclo[20.5.3.1^3,70.1^9,130.0^12,160.0^25,29]dotriaconta-3(32),4,6,9(31),10,12,14,22,24,29-decaen-8-yl]acetic acid], the concentration for a half-maximal effect (EC50) worked out at 2080 nM.
`COc1ccc2cc1[C@@H](C)N1Cc3cc(ccc3OS1(=O)=O)OCCOCCn1nnc3c(C)c(ccc31)[C@H]2CC(=O)O` [Example 41a]: the EC50 was found to be 716 nM.
For `COc1ccc2cc1[C@@H](C)N1Cc3cc(ccc3OS1(=O)=O)OCCOCCn1nnc3c(C)c(ccc31)[C@@H]2CC(=O)O` [Example 41b], the EC50 was more than 3160 nM.
Take `Cc1ccc2cc1[C@@H](C)N1Cc3cc(ccc3OS1(=O)=O)OC[C@@H](O)CCn1nnc3c(C)c(ccc31)[C@H]2CC(=O)O` [Example 46a, [(2R,8RS,19S)-19-Hydroxy-2,4,31-trimethyl-27,27-dioxo-21,26-dioxa-27λ^6-thia-1,14,15,16-tetraazahexacyclo[20.5.3.1^3,70.1^9,130.0^12,160.0^25,29]dotriaconta-3(32),4,6,9(31),10,12,14,22,24,29-decaen-8-yl]acetic acid]: the EC50 worked out at 228 nM.
Regarding `Cc1ccc2cc1[C@@H](C)N1Cc3cc(ccc3OS1(=O)=O)OC[C@@H](O)CCn1nnc3c(C)c(ccc31)[C@@H]2CC(=O)O` [Example 46b, [(2R,8RS,19S)-19-hydroxy-2,4,31-trimethyl-27,27-dioxo-21,26-dioxa-27λ^6-thia-1,14,15,16-tetraazahexacyclo[20.5.3.1^3,70.1^9,130.0^12,160.0^25,29]dotriaconta-3(32),4,6,9(31),10,12,14,22,24,29-decaen-8-yl]acetic acid], the half-maximal effective concentration (EC50) was 792 nM.
In the case of `COc1ccc2cc1CN1Cc3cc(ccc3OS1(=O)=O)OCCN(C)CCCCn1nnc3c(C)c(ccc31)C2CC(=O)O` (centres unmarked) [Example 47] it was 288 nM; in that of `Cc1ccc2cc1CN1Cc3cc(ccc3OS1(=O)=O)OCCCCn1nnc3c(C)c(cc(Br)c31)[C@@H]2CC(=O)O` [Example 48, [(8R)-11-Bromo-4,31-dimethyl-27,27-dioxo-21,26-dioxa-27λ^6-thia-1,14,15,16-tetraazahexacyclo[20.5.3.1^3,70.1^9,130.0^12,160.0^25,29]dotriaconta-3(32),4,6,9(31),10,12,14,22,24,29-decaen-8-yl]acetic acid], 198 nM.
For the compound `COc1ccc2cc1CN1Cc3cc(ccc3OS1(=O)=O)OCCOCCn1nnc3c(C)c(ccc31)C2CC(=O)O` (centres unmarked) [Example 59b, [4-Methoxy-32-methyl-28,28-dioxo-19,22,27-trioxa-28λ^6-thia-1,14,15,16-tetraazahexacyclo[21.5.3.1^3,70.1^9,130.0^12,160.0^26,30]tritriaconta-3(33),4,6,9(32),10,12,14,23,25,30-decaen-8-yl]acetic acid], the EC50 is 1760 nM.
For the compound `Cc1ccc2cc1CN1Cc3cc(ccc3OS1(=O)=O)OCc1ccccc1CCn1nnc3c(C)c(ccc31)C2CC(=O)O` (centres unmarked) [Example 62b, [4,36-Dimethyl-32,32-dioxo-26,31-dioxa-32λ^6-thia-1,14,15,16-tetraazaheptacyclo[25.5.3.1^3,70.1^9,130.0^12,160.0^19,240.0^30,34]heptatriaconta-3(37),4,6,9(36),10,12,14,19,21,23,27,29,34-tridecaen-8-yl]acetic acid], the EC50 is more than 3160 nM.
Consider `Cc1ccc2cc1CN1Cc3cc(ccc3OS1(=O)=O)OCCSCCn1nnc3c(C)c(ccc31)C2CC(=O)O` (centres unmarked) [Example 63b, [4,32-Dimethyl-28,28-dioxo-22,27-dioxa-19,28λ^6-dithia-1,14,15,16-tetraazahexacyclo[21.5.3.1^3,70.1^9,130.0^12,160.0^26,30]tritriaconta-3(33),4,6,9(32),10,12,14,23,25,30-decaen-8-yl]acetic acid], for which the EC50 was 1220 nM.
Regarding `Cc1c2ccc3c1nnn3CCCCOc1ccc3c(c1)CN([C@H](C)c1cc(ccc1Cl)[C@H]2CC(=O)O)S(=O)(=O)O3` [Example 64b, [(2R,8R)-4-chloro-2,31-dimethyl-27,27-dioxo-21,26-dioxa-27λ^6-thia-1,14,15,16-tetraazahexacyclo[20.5.3.1^3,70.1^9,130.0^12,160.0^25,29]dotriaconta-3(32),4,6,9(31),10,12,14,22,24,29-decaen-8-yl]acetic acid], the EC50 was 231 nM.
As for `Cc1ccc2cc1CN1Cc3cc(ccc3OS1(=O)=O)OCCC(c1ccc(C(F)(F)F)cc1)Cn1nnc3c(C)c(ccc31)C2CC(=O)O` (centres unmarked) [Example 65, {4,31-Dimethyl-27,27-dioxo-18-[4-(trifluoromethyl)phenyl]-21,26-dioxa-27λ^6-thia-1,14,15,16-tetraazahexacyclo[20.5.3.1^3,70.1^9,130.0^12,160.0^25,29]dotriaconta-3(32),4,6,9(31),10,12,14,22,24,29-decaen-8-yl}acetic acid], the figure is 699 nM; as for `Cc1ccc2cc1CN1Cc3cc(ccc3OS1(=O)=O)Oc1ccccc1NCCCn1nnc3c(C)c(ccc31)C2CC(=O)O` (centres unmarked) [Example 71b, [4,37-Dimethyl-33,33-dioxo-27,32-dioxa-33λ^6-thia-1,14,15,16,20-pentaazaheptacyclo[26.5.3.1^3,70.1^9,130.0^12,160.0^21,260.0^31,35]octatriaconta-3(38),4,6,9(37),10,12,14,21,23,25,28,30,35-tridecaen-8-yl]acetic acid], 570 nM.
For `Cc1ccc2cc1CN1Cc3cc(c(Cl)cc3OS1(=O)=O)OCCOCCn1nnc3c(C)c(ccc31)C2CC(=O)O` (centres unmarked) [Example 75, [24-Chloro-4,32-dimethyl-28,28-dioxo-19,22,27-trioxa-28λ^6-thia-1,14,15,16-tetraazahexacyclo[21.5.3.1^3,70.1^9,130.0^12,160.0^26,30]tritriaconta-3(33),4,6,9(32),10,12,14,23,25,30-decaen-8-yl]acetic acid], the EC50 came to 59.6 nM.

Usually EC50 stands for the concentration that produces a half-maximal response.
